# In article PMC7011920, “Synthesis and biological evaluation of stilbene derivatives coupled to NO donors as potential antidiabetic agents” (Journal of Enzyme Inhibition and Medicinal Chemistry, 2018):
# Key:
# [1] = system: AGEs (advanced glycation end products) formation; assay: In vitro inhibitory activity of AGEs formation (bovine serum albumin/glucose, fluorescence)
# Description: Advanced glycation end products are a group of complex and heterogeneous compounds, which are implicated in a number of biochemical abnormalities associated with diabetes[21]^,[22]. Therefore, the discovery of AGEs inhibitors would be beneficial to the prevention and treatment of diabetic or other pathogenic complications.
# To prepare the AGE reaction solution, 10 mg/ml of bovine serum albumin in 50 mM PBS (pH 7.4) was added to 0.2 M glucose, and 0.02% sodium azide was added to prevent bacterial growth. The reaction mixture (3 ml) was then mixed with various concentrations (0.5–1000 µg/ml) of the target compounds (1 ml) dissolved in DMSO. After incubating at 37 °C for 14 d, the fluorescence intensity of AGE was determined by a fluorospectrophotometer (PE, Cincinnati, OH) with excitation and emission wavelengths at 350 nm and 420 nm[30], respectively. All experiments were run in triplicate. Aminoguanidine hydrochloride was used as a reference compound. The inhibition rate of AGEs formation and the IC50 value of each sample were calculated according to the formula. Inhibition rate %={[(AC−AB)−(AS−ASB)]/(AC−AB)}×100% where AC is the absorbance of control group (1.0 ml glucose +1.0 ml bovine serum albumin +1.0 ml sodium azide +1.0 ml DMSO); AB is the absorbance of blank group (1.0 ml PBS +1.0 ml bovine serum albumin +1.0 ml sodium azide +1.0 ml DMSO); AS is the absorbance of sample group (1.0 ml glucose +1.0 ml bovine serum albumin +1.0 ml sodium azide +1.0 ml target compound solution or aminoguanidine hydrochloride solution); ASB is the absorbance of sample blank group (1.0 ml PBS +1.0 ml bovine serum albumin +1.0 ml sodium azide +1.0 ml target compound solution or aminoguanidine hydrochloride solution).
# α-Glucosidase = biological target: T1, α-Glucosidase (Saccharomyces cerevisiae, UniProt P53341); assay: biochemical; conditions: read-out: IC50 value, α-Glucosidase inhibitory activity
# T1 construct: purchased Sigma Aldrich G0660-750UN
# Description: α-Glucosidases, enzymes anchored in the brush border of the small intestine, are responsible for catalysing the hydrolysis of carbohydrates.
# α-Glucosidase (G0660-750UN, Sigma Aldrich, St. Louis, MO) and 4-nitrophenyl α-D-glucopyranoside (PNPG, Macklin) were dissolved in phosphate buffer (pH 6.8, 100 mM), and the test compounds were dissolved in DMSO solution. The experiment was divided into blank group, control group, sample blank group and sample group. The reagents were loaded in 96-well plates at the dose of the table (Table 3). The solution was bathed in 37 °C water for 10 min, after the end, enzyme solution was added. After reaction at 37 °C for 20 min, 70 µL Na2CO3 solution ([…]) was added to stop the reaction. All experiments were run in triplicate. […] Since PNPG can produce glucose and p-nitrophenol (PNP) under the action of α-glucosidase, PNP has the greatest absorption at 405 nm. The absorbance was determined by the microplate reader, and the inhibition rate of α-glucosidase and the IC50 value of each sample were calculated according to the formula. Inhibition rate %={[(AC−AB)−(AS−ASB)]/(AC−AB)}×100% where AC is the absorbance of control group; AB is the absorbance of blank group; AS is the absorbance of sample group; ASB is the absorbance of sample blank group.
# [2] = system: STZ-induced diabetic mice; assay: Acute hypoglycaemic assay in STZ-diabetic mice; assay type: in vivo; conditions: for Blood glucose concentration: mean ± SEM, six mice
# Description: The antidiabetic activity was determined by using a standard method. […] Especially, compound 7c caused significant decreases in blood glucose levels when compared with vehicle-treated groups (p < .05). […] In STZ-diabetic animals, the hypoglycaemic effect of pterostilbene (40 mg/kg of bw) was larger than 50% since 5 h and persisted throughout the experiment. Target compound 7c (40 mg/kg of bw) caused significant decreases in blood glucose levels compared with pterostilbene (40 mg/kg of bw).
# Type II DM was induced in mice by a single intraperitoneal injection of freshly prepared STZ (Sigma Aldrich, St. Louis, MO) dissolved in 0.1 M citrate buffer, pH 4.5, in a […] of 120 mg/kg of bw. After seven days of STZ administration, blood glucose levels of each mouse were determined. Mice with blood glucose levels higher than 11 mM were considered diabetic and were included in the study.
# STZ-induced diabetic mice and normal mice were placed in single cages with wire-net floors and deprived of food for 12 h before experimentation but allowed free access to tap water throughout. The compounds (at the doses of 10, 40, and 100 mg/kg of bw) were suspended in 0.05% Tween-80 in saline solution. Glibenclamide (10 mg/kg of bw) was suspended in the same vehicle. The target compounds were freshly prepared immediately before experimentation and administered by the intragastrical route at the doses of 10 ml/kg of bw. Control mice received only the vehicle (0.05% Tween-80 in saline solution) by the same route. Blood glucose levels were measured at 0, 1.5, 3, 5, 7, and 9 h after drugs administration.
# T1 sequence (P53341 whole entry): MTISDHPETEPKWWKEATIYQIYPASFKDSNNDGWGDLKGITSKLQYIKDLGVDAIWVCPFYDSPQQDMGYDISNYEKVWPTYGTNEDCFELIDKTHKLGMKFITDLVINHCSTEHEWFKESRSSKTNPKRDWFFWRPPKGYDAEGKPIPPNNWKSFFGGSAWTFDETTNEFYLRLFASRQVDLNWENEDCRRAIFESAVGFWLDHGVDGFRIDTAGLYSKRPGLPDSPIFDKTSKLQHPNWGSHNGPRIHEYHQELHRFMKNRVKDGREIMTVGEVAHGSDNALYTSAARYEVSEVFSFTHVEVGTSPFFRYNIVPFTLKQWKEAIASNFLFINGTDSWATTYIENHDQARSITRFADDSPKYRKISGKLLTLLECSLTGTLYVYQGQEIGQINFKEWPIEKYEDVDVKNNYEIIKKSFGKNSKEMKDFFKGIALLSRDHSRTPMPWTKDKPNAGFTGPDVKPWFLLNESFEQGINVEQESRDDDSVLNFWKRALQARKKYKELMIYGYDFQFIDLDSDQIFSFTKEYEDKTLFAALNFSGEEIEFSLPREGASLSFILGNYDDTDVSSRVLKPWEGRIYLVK
structure (smiles),measurement,setting,value
COc1cc(/C=C/c2ccc(OCCCCCCO[N+](=O)[O-])cc2)cc(OC)c1 [3c],IC50,"[1]; 50% inhibition of fluorescence intensity of AGE relative to 0.1% DMSO, mean ± SD (n = 3)",1.49 ± 0.2 µM
same,AGEs formation inhibitory activity compared with positive reference AG,[1]; ratio to AG,over 100 folds
same,IC50,α-Glucosidase,83.1 ± 16.2 µM
same,Blood glucose concentration,"[2]; dose 10 mg/kg per os, 0 h",22.6 ± 7.0 mM
same,Blood glucose concentration,"[2]; dose 10 mg/kg per os, 1.5 h",18.1 ± 7.3 mM
same,% Variation of glycaemia,"[2]; dose 10 mg/kg per os, 1.5 h vs 0 h",–20.13%
same,Blood glucose concentration,"[2]; dose 10 mg/kg per os, 3 h",17.0 ± 6.6 mM
same,% Variation of glycaemia,"[2]; dose 10 mg/kg per os, 3 h vs 0 h",–24.78%
same,Blood glucose concentration,"[2]; dose 10 mg/kg per os, 5 h",16.8 ± 6.1 mM
same,% Variation of glycaemia,"[2]; dose 10 mg/kg per os, 5 h vs 0 h",–25.66%
same,Blood glucose concentration,"[2]; dose 10 mg/kg per os, 7 h",15.7 ± 4.3 mM
same,% Variation of glycaemia,"[2]; dose 10 mg/kg per os, 7 h vs 0 h",–30.53%
same,Blood glucose concentration,"[2]; dose 10 mg/kg per os, 9 h",13.2 ± 3.5 mM
same,% Variation of glycaemia,"[2]; dose 10 mg/kg per os, 9 h vs 0 h",–41.59%
same,Blood glucose concentration,"[2]; dose 40 mg/kg per os, 0 h",21.7 ± 5.7 mM
same,Blood glucose concentration,"[2]; dose 40 mg/kg per os, 1.5 h",17.2 ± 5.6 mM
same,% Variation of glycaemia,"[2]; dose 40 mg/kg per os, 1.5 h vs 0 h",–20.74%
same,Blood glucose concentration,"[2]; dose 40 mg/kg per os, 3 h",16.3 ± 7.5 mM
same,% Variation of glycaemia,"[2]; dose 40 mg/kg per os, 3 h vs 0 h",–25.04%
same,Blood glucose concentration,"[2]; dose 40 mg/kg per os, 5 h",15.7 ± 6.4 mM
same,% Variation of glycaemia,"[2]; dose 40 mg/kg per os, 5 h vs 0 h",–27.57%
same,Blood glucose concentration,"[2]; dose 40 mg/kg per os, 7 h",14.3 ± 9.6 mM
same,% Variation of glycaemia,"[2]; dose 40 mg/kg per os, 7 h vs 0 h",–34.02%
same,Blood glucose concentration,"[2]; dose 40 mg/kg per os, 9 h",9.9 ± 4.6 mM
same,% Variation of glycaemia,"[2]; dose 40 mg/kg per os, 9 h vs 0 h",–54.30%
same,Blood glucose concentration,"[2]; dose 100 mg/kg per os, 0 h",18.6 ± 1.9 mM
same,Blood glucose concentration,"[2]; dose 100 mg/kg per os, 1.5 h",15.9 ± 3.6 mM
same,% Variation of glycaemia,"[2]; dose 100 mg/kg per os, 1.5 h vs 0 h",–14.34%
same,Blood glucose concentration,"[2]; dose 100 mg/kg per os, 3 h",15.2 ± 3.0 mM
same,% Variation of glycaemia,"[2]; dose 100 mg/kg per os, 3 h vs 0 h",–18.28%
same,Blood glucose concentration,"[2]; dose 100 mg/kg per os, 5 h",15.1 ± 3.7 mM
same,% Variation of glycaemia,"[2]; dose 100 mg/kg per os, 5 h vs 0 h",–19.00%
same,Blood glucose concentration,"[2]; dose 100 mg/kg per os, 7 h",13.4 ± 4.7 mM
same,% Variation of glycaemia,"[2]; dose 100 mg/kg per os, 7 h vs 0 h",–28.23%
same,Blood glucose concentration,"[2]; dose 100 mg/kg per os, 9 h",11.1 ± 3.0 mM
same,% Variation of glycaemia,"[2]; dose 100 mg/kg per os, 9 h vs 0 h",–40.32%
